Experimental data published in patent US4794183A, “Certain tetrahydro-furan or pyran phosphate-ethylene or propylene ammonium derivatives” (Sankyo Company Limited, priority 1985, dated 1988).
Like-named read-outs stand apart in the source and are kept apart here.

Key:
sarcoma 180 = assay: Anti-tumor effect, survival of mice transplanted intraperitoneally with sarcoma 180 ascites cells; assay type: in vivo, mice (ICR/Jcl strain, female); conditions: for ILS (increase in lifespan) / No. surviving after 60 days: single dose, intraperitoneal; for ILS (increase in lifespan): (Tt-Tc) as percentage of Tc; for No. surviving after 60 days: survivors/number in test group; for mice kept alive at the end of 60 days: text summary of Table 8, dose not stated
Experimental: The test animals used were 8 week old female mice of the ICR/Jcl strain and were employed in groups of 5 mice for each test. Into each mouse were transplanted intraperitoneally 1×10^5 ascites cells of sarcoma 180. The day after transplantation, the test compound, dissolved in sterilized physiological saline, was administered in a single dose (in the amount shown in the following Table 8) intraperitoneally to the animals. A control group was given an intraperitoneal administration of sterilized physiological saline without any active compound. The results are reported in the following Table 8 as follows: Tt /Tc, where Tt is the mean survival time (in days) of the mice of a test group (i.e. to which one of the test compound was administered) and Tc is the mean survival time (in days) of the control group; ILS (%), i.e. the increase in lifespan, which is calculated as (Tt -Tc) expressed as a percentage of Tc; and number surviving after 60 days, in which the first number is the number of animals surviving, and the second number is the number in the test group.

[1] = tested on: rabbits' platelet-rich plasma; assay: Platelet aggregating activity using rabbits' platelet-rich plasma (method of Born et al.); assay type: cell-based, rabbit; conditions: Oryctolagus cuniculus, read-out: Platelet aggregating effect (EC50)
Experimental: The platelet aggregating activity of the compounds of the invention using rabbits' platelet-rich plasma was examined by the method of Born et al. [Born et al., J. Physiol., 162, 67-68 (1962)]. The EC50 values were calculated. As in Experiment 2, C16 PAF was used as a reference.

[2] = rabbits' platelet-rich plasma, C16 PAF as reference

Row | SMILES | ILS (increase in lifespan) (sarcoma 180; 20 mg/kg) | No. surviving after 60 days (sarcoma 180; 20 mg/kg) | ILS (increase in lifespan) (sarcoma 180; 10 mg/kg) | No. surviving after 60 days (sarcoma 180; 10 mg/kg) | EC50 [1, 2] | ILS (increase in lifespan) (sarcoma 180; 5 mg/kg) | No. surviving after 60 days (sarcoma 180; 5 mg/kg) | mice kept alive at the end of 60 days (sarcoma 180) | EC50 ([1]; Platelet)
1 | CCCCCCCCCCCCCCCCOC[C@H]1OCCC[C@@H]1OP(=O)([O-])OCC[n+]1ccccc1 (relative stereo) [Example 6, dl-(trans-2-Hexadecyloxymethyltetrahydropyran-3-yl) 2-pyridinioethyl phosphate] | 155% | 0/5 | – | – | – | – | – | – | –
2 | CCCCCCCCCCCCCCCCO[C@@H]1CCCO[C@H]1COP(=O)([O-])OCC[N+](C)(C)C (relative stereo) [Example 3, dl-(trans-3-Hexadecyloxytetrahydropyran-2-yl)methyl 2-(trimethylammonio)ethyl phosphate] | – | – | 127% | 1/5 | > 400 µM | – | – | – | –
3 | CCCCCCCCCCCCCCCCOC[C@H]1OCCC[C@@H]1OP(=O)([O-])OCC[N+](C)(C)C (relative stereo) [Example 1, dl-(trans-2-Hexadecyloxymethyltetrahydropyran-3-yl) 2-(trimethylammonio)ethyl phosphate] | – | – | 136% | 1/5 | > 100 µM | 169% | 2/5 | 2 of the 5 | –
4 | CCCCCCCCCCCCCCCCOCC(COP(=O)([O-])OCC[N+](C)(C)C)OC(C)=O (stereo not shown) [C16 PAF, reference compound] | – | – | – | – | – | – | – | – | 0.009 µM
5 | CCCCCCCCCCCCCCCCOC[C@H]1OCC[C@@H]1OP(=O)([O-])OCC[N+](C)(C)C (relative stereo) [Example 5, dl-(trans-2-Hexadecyloxymethyltetrahydrofuran-3-yl) 2-(trimethylammonio)ethyl phosphate] | – | – | – | – | > 100 µM | 157% | 2/5 | 2 of the 5 | –
